The source of these data is PMC3276575, “Structural and Functional Insights into the Pilotin-Secretin Complex of the Type II Secretion System” (PLoS Pathogens, 2012).

One data set addresses T1, OutS_Q114A (Dickeya dadantii, UniProt Q01567, Q114A).
T1 construct: made in house; host or cells: E. coli (periplasm)
T1 sequence (Q01567 21-133 Q114A): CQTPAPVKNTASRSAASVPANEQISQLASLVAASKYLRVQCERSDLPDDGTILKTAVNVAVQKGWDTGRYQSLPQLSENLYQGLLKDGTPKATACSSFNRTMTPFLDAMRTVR
The data set can be described thus: Fluorescence quenching titration, secretin peptide binding to pilotin mutant Q114A. The settings on record: fluorescence at 340 nm, excitation 290 nm, 15°C, 1 µM pilotin. From the text:
(§1) The pET-20b(+) plasmid expressing non-lipidated OutS (residues 26 to 132) fused to N-terminal PelB signal peptide has been constructed previously at a manner as the sequence of mature non-lipidated OutS after cleavage by the signal peptidase LepB is: MDP^26VKNT etc. To fuse a C-terminal 6His tag to non-lipidated OutS, SalI site was introduced at the end of outS sequence by using the primer (5′-ctt gac gcc atg cgc acc gtc gac tga ggg gga agc aac tgc) and the reverse complementary one (mutated bases are underlined). Then, by SalI/XhoI digestion the sequence coding for non-lipidated OutS was fused with that coding for 6His. Mutants of OutS were made using Strategene QuikChange and confirmed by sequencing.
(§2) Fluorescence data were collected using a Jasco FP-6300 Spectrofluorometer. […] Emission spectra were recorded at 15°C in steps of 2 nm from 310 to 400 nm. The fluorescence signal at 340 nm was plotted to calculate K d. Pilotin spectra was measured at 1 µM. […]
(§3) The Kd was determined by fitting the following equation: […]
(§4) where [PS] is the concentration of the pilotin/secretin complex, [P0] is the total concentration of the pilotin (1 µM), [S0] is the total concentration of the secretin peptide, and Kd is the dissociation constant. The observed fluorescence signal is then given by: F = FPS[PS] + FP[P]; as there are no tryptophans in the secretin peptide. […]

The target of the next data set is T2, OutS_L100A (Dickeya dadantii, UniProt Q01567, L100A).
T2 construct: made in house; host or cells: E. coli (periplasm)
T2 sequence (Q01567 21-133 L100A): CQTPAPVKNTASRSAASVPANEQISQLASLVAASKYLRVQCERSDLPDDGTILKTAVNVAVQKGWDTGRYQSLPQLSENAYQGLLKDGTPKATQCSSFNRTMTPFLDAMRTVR
Description: Fluorescence quenching titration, secretin peptide binding to pilotin mutant L100A. The settings on record: fluorescence at 340 nm, excitation 290 nm, 15°C, 1 µM pilotin.
Source text: as §1, §2, §3, §4

In another data set the target is T3, OutS_L96A (Dickeya dadantii, UniProt Q01567, L96A).
T3 construct: made in house; host or cells: E. coli (periplasm)
T3 sequence (Q01567 21-133 L96A): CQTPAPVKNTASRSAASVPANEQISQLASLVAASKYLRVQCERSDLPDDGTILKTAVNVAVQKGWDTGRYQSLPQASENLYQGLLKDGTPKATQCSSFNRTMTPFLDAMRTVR
Description: Fluorescence quenching titration, secretin peptide binding to pilotin mutant L96A. The settings on record: fluorescence at 340 nm, excitation 290 nm, 15°C, 1 µM pilotin.
Source text: as §1, §2, §3, §4

In a further data set the target is T4, OutS_S49R (Dickeya dadantii, UniProt Q01567, S49R).
T4 construct: made in house; host or cells: E. coli (periplasm)
T4 sequence (Q01567 21-133 S49R): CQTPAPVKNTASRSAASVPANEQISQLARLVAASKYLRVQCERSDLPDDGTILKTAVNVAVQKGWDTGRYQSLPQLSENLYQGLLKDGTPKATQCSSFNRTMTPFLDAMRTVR
Description: Fluorescence quenching titration, secretin peptide binding to pilotin mutant S49R. The settings on record: fluorescence at 340 nm, excitation 290 nm, 15°C, 1 µM pilotin.
Source text: as §1, §2, §3, §4

For a further data set, the system named is pspA-lacZ. The data set can be described thus: pspA-lacZ induction (β-galactosidase activity). It counts as cell-based. Particulars: E. coli MC3, 12 h at 30°C in LB. From the text: (§5) Figure 4 In vivo determination of secretin interactions with pilotin. Removal of the extreme C-terminal region of the secretin results in mislocalization of the secretin to the inner membrane (A) Sequence of the C-terminus of Dickeya dadantii secretin (OutD) along with the secondary structure prediction for this region; the predicted three helices are marked “H”. The sequences of the three secretin deletion mutants (OutDΔC1 to OutDΔC3) and the C-terminal secretin peptides used are shown. (B) Stabilization of truncated derivatives of the secretin (OutD) by pilotin (OutS) in vivo. E. coli MC3 cells expressing an OutD derivative (indicated above) and either OutS (+) or empty pACT3 vector (−) were grown for 12 h at 30°C in LB medium and then analyzed by immunoblotting with OutD antibodies. In the same cultures, β-galactosidase activity was assessed to estimate expression of pspA-lacZ. An elevated level of pspA reflects mislocalization of the corresponding secretin derivative to the inner membrane. […] The whole membrane fraction from E. coli NM522 cells coexpressing the indicated secretin derivatives and pilotin was separated by flotation sucrose gradient centrifugation and analyzed by immunoblotting with OutD- antibodies or stained with Coomassie G-250 to detect the major porins, which reflect the position of the outer membrane. […]

For a further data set, the system named is inner membrane. The settings on record: ref [21]; cited from earlier work. From the text:
The type II secretion system spans both the inner and outer bacterial membranes, [18]. It consists of an inner membrane subcomplex, periplasmic pseudopilins and the outer membrane secretin [19]. There have been considerable recent advances in our understanding of the T2SS secretin. First the structure of the N-terminal periplasmic domains N0, N1, and N2 in complex with a nanobody was elucidated (PDB code 3EZJ) and secondly a cryo EM reconstruction of the secretin itself has been described. In the absence of pilotin the D. dadantii secretin (OutD) mislocates to the inner ...

In another data set the test system is E. coli NM522 cells. Description: Membrane location by flotation sucrose gradient centrifugation. The format is cell-based. The settings on record: with pilotin OutS, immunoblot.
Source text: as §5

Peptide text beside a SMILES is read from it.

`CC[C@H](C)[C@H](NC(=O)[C@H](CO)NC(=O)[C@H](CO)NC(=O)[C@H](CCC(N)=O)NC(=O)[C@@H](NC(=O)[C@H](CCC(N)=O)NC(=O)[C@H](CCCNC(=N)N)NC(=O)[C@H](Cc1ccccc1)NC(=O)[C@@H](NC(=O)[C@H](Cc1ccc(O)cc1)NC(=O)[C@@H](N)[C@@H](C)O)[C@@H](C)O)C(C)C)C(=O)N[C@@H](CO)C(=O)N[C@@H](CC(=O)O)C(=O)N[C@@H](Cc1ccccc1)C(=O)N[C@@H](Cc1ccc(O)cc1)C(=O)N[C@@H](CCCCN)C(=O)N1CCC[C@H]1C(=O)N[C@@H](CCC(=O)O)C(=O)O` [18 residue secretin peptide] (H-TYTFRQVQSSISDFYKPE-OH): the Kd is 1.1 ± 0.35 µM at OutS_Q114A, 2.1 ± 0.5 µM on OutS_L100A, 5.3 ± 1.2 µM on OutS_L96A and greater than 200 µM on OutS_S49R.

B1: OutD: Dickeya dadantii secretin of the type II secretion system, UniProt Q01565 (protein, UniProt Q01565 28-710, looked up)
Secretin OutD: AEFSASFKGTDIQEFINTVSKNLNKTVIIDPTVRGTISVRSYDMMNEGQYYQFFLSVLDVYGFSVVPMDNGVLKVIRSKDAKSSSIPLANNEQPGIGDELVTRVVPLNNVAARDLAPLLRQLNDNAGAGTVVHYEPSNVLLMTGRAAVIKRLVDIVNTVDKTGDREMVTVPLTYASAEDVAKLVNDLNKSDEKNALPSTMLANVVADGRTNSVVVSGEENARQRAVEMIRQLDRKQVVQGGTKVIYLKYAKALDLIEVLAGNGTSGNRNSSSSNASRPSSPRSGSSSNSNSSSGSSGSSSGSSSSSSSSSSMGFGSAFGSTSSSGGRTITIQGKEVTVRAHDQTNSLIITAPPDIMRDLEQVINQLDIRRPQVLVEAIIAEIQDADGLNLGIQWANKRAGMTQFTNTGIPISTAVIGTDQFRSNGTLTTAYASALSSFNGVTAGFYRGNWSMLLTALSSDSKNDVLATPSIVTLDNMEATFNVGQEVPVLTGSQTTSADNIFNTVERKTVGIKLRVKPQINEGDSVLLQIEQEVSSVADSNSSTNSSLGVTFNTRTVNNAVMVTNGETVVVGGLLDKTSVESNDKVPLLGDIPWLGSLFRSKSQEVRKRNLMLFLRPTIIRDPGQFQEASINKYRSFNNEQQQQRGEGNGVLDNNTLRLSGGNTYTFRQVQSSISDFYKPEGR
For the molecule B1, the “pspA (β-galactosidase activity)” value amounted to 800 in the data set on pspA-lacZ (OutS: +) and 1100 in the data set with pspA-lacZ (OutS: − (empty pACT3 vector)). In the data set on inner membrane, the “location of secretin in absence of pilotin” value was “mislocates to the inner membrane”. The “outer membrane location / targeting” value with E. coli NM522 cells is recorded as “promotes the outer membrane location”.
